Results reported in patent publication US20230233569A1 (Revolution Medicines, Inc., priority 2020, published 2023).
Like-named read-outs stand apart in the source and are kept apart here.

Columns and labels:
KRAS G12C = KRAS G12C (Homo sapiens, UniProt P01116+P62937, G12C); assay: Disruption of BRAF RBD interaction with Ras (FRET / MOA assay, with Cyclophilin A); format: biochemical
Outline: (§1)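 First, compounds at a ten-point threefold dilution series (highest final concentration 30 μM) were incubated with nucleotide-loaded K-Ras, Cyclophilin A and BRAF RBD for 3 h at 25 °C. Next, detection antibodies were added for 1.5 h. Finally, IC50 was calculated from TR-FRET ratio decreases against DMSO controls.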

KRAS G12D = KRAS G12D (Homo sapiens, UniProt P01116+P62937, G12D); assay: as above; format: biochemical
KRAS G12D, sequence (P01116 1-169 isoform P01116-2 G12D limits assumed): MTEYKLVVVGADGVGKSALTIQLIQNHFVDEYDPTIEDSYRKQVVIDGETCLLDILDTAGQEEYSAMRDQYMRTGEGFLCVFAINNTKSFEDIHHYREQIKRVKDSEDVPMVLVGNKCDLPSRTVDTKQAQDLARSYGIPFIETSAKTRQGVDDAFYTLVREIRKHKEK
KRAS G12D, sequence (P62937 whole entry): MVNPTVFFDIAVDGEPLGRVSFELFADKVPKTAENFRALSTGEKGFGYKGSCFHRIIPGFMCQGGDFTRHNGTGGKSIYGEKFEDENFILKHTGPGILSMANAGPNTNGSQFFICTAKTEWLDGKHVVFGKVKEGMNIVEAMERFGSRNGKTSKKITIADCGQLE
Outline: as §1

KRAS G12V = KRAS G12V (Homo sapiens, UniProt P01116+P62937, G12V); assay: as above; format: biochemical
KRAS G12V, sequence (P01116 1-169 isoform P01116-2 G12V limits assumed): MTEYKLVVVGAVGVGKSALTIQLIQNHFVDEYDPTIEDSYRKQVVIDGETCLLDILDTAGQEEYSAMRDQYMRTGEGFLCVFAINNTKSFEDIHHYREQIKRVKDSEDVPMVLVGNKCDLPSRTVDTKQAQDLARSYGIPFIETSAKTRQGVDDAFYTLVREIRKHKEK
KRAS G12V, sequence (P62937 whole entry): as the sequence (P62937 whole entry) above
Outline: as §1

KRAS WT = KRAS WT (Homo sapiens, UniProt P01116+P62937); assay: as above; format: biochemical
KRAS WT, sequence (P01116 1-169 isoform P01116-2 limits assumed): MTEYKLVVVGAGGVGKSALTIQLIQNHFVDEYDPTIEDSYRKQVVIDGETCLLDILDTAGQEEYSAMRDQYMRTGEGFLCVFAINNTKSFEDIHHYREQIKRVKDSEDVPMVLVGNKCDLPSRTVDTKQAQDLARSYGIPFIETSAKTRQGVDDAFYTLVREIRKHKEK
KRAS WT, sequence (P62937 whole entry): as the sequence (P62937 whole entry) above
Outline: as §1

NRAS G12C = NRAS G12C (Homo sapiens, UniProt P01111+P62937, G12C); assay: as above; format: biochemical
NRAS G12C, sequence (P01111 whole entry G12C): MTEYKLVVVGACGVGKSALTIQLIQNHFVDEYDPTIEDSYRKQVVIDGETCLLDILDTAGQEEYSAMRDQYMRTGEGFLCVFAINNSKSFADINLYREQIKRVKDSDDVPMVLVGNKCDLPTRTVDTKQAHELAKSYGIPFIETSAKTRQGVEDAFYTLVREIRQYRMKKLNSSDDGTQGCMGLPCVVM
NRAS G12C, sequence (P62937 whole entry): as the sequence (P62937 whole entry) above

KRAS G13C = KRAS G13C (Homo sapiens, UniProt P01116+P62937, G13C); assay: as above; format: biochemical
KRAS G13C, sequence (P01116 1-169 isoform P01116-2 G13C): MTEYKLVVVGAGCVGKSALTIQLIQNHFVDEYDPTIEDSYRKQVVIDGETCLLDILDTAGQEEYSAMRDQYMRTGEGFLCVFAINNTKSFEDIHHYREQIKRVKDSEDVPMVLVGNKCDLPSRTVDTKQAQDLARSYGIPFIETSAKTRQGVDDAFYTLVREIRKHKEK
KRAS G13C, sequence (P62937 whole entry): as the sequence (P62937 whole entry) above
Outline: as §1

KRAS G13D = KRAS G13D (Homo sapiens, UniProt P01116+P62937, G13D); assay: as above; format: biochemical
KRAS G13D, sequence (P01116 1-169 isoform P01116-2 G13D limits assumed): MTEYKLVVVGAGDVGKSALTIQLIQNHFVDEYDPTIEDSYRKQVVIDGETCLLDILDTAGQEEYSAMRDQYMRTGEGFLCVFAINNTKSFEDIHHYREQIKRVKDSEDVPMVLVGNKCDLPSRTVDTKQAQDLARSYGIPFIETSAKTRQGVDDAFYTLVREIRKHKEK
KRAS G13D, sequence (P62937 whole entry): as the sequence (P62937 whole entry) above
Outline: as §1

KRAS G12S = KRAS G12S (Homo sapiens, UniProt P01116+P62937, G12S); assay: as above; format: biochemical
KRAS G12S, sequence (P01116 1-169 isoform P01116-2 G12S limits assumed): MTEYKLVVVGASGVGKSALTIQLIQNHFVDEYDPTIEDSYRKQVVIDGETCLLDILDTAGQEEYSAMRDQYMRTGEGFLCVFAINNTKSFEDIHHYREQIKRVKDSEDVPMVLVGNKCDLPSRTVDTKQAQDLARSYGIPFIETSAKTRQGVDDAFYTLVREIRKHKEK
KRAS G12S, sequence (P62937 whole entry): as the sequence (P62937 whole entry) above
Outline: as §1

Capan-1 (K-Ras G12V) = assay: CellTiter-Glo cell viability assay, 5-day treatment; format: cell-based; conditions: Homo sapiens, CAPAN-1, 120 h, 5-day treatment; read-out: Capan-1 Cell Viability assay data (K-Ras G12V, IC50)
Outline: (§2)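 Compounds were dispensed directly onto seeded cells and incubated for 5 days, then plates were equilibrated to room temperature for about 30 minutes before luminescence reading. Signals were expressed as percent of the mean DMSO control and fitted with a four-parameter logistic curve.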

NCI-H358 (K-Ras G12C) = assay: as above; format: cell-based; conditions: Homo sapiens, NCI-H358, 120 h, 5-day treatment; read-out: H358 Cell Viability assay data (K-Ras G12C, IC50)
Outline: as §2

NRAS Q61R = NRAS Q61R (Homo sapiens, UniProt P01111+P62937, Q61R); assay: Disruption of BRAF RBD interaction with Ras (FRET / MOA assay, with Cyclophilin A); format: biochemical; conditions: NRAS Q61R; read-out: NRAS Q61R FRET data IC50
NRAS Q61R, sequence (P01111 whole entry Q61R): as the sequence (P01111 whole entry G12C) above, with C12G, Q61R counted along it
NRAS Q61R, sequence (P62937 whole entry): as the sequence (P62937 whole entry) above
Outline: (§3)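 TR-FRET in 25 mM HEPES pH 7.3, 100 mM NaCl, 5 mM MgCl2, 0.1% BSA: 25 μM Cyclophilin A, 12.5 nM His6-Ras-GMPPNP, 50 nM GST-BRAF RBD with compound (10-point 3-fold series from 30 μM), 3 h at 25° C. Anti-His Eu/anti-GST APC added, 1.5 h more; IC50 from decreased FRET ratio versus DMSO.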

KRAS Q61H = KRAS Q61H (Homo sapiens, UniProt P01116+P62937, Q61H); assay: as above; format: biochemical; conditions: KRAS Q61H; read-out: KRAS Q61H FRET data IC50
KRAS Q61H, sequence (P01116 1-169 isoform P01116-2 Q61H limits assumed): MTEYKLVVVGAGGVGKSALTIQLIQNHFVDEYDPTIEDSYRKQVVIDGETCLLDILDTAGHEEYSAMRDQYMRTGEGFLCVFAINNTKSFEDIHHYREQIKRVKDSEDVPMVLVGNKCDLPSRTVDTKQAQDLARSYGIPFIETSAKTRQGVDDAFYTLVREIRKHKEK
KRAS Q61H, sequence (P62937 whole entry): as the sequence (P62937 whole entry) above
Outline: as §3

NRAS Q61K = NRAS Q61K (Homo sapiens, UniProt P01111+P62937, Q61K); assay: as above; format: biochemical; conditions: NRAS Q61K; read-out: NRAS Q61K FRET data IC50
NRAS Q61K, sequence (P01111 whole entry Q61K): as the sequence (P01111 whole entry G12C) above, with C12G, Q61K counted along it
NRAS Q61K, sequence (P62937 whole entry): as the sequence (P62937 whole entry) above
Outline: as §3

NRAS WT = NRAS WT (Homo sapiens, UniProt P01111+P62937); assay: as above; format: biochemical; conditions: NRAS WT; read-out: NRAS WT FRET data IC50
NRAS WT, sequence (P01111 whole entry): as the sequence (P01111 whole entry G12C) above, with C12G counted along it
NRAS WT, sequence (P62937 whole entry): as the sequence (P62937 whole entry) above
Outline: as §3

[1] = read-out: KRAS G12C FRET data, IC50
[2] = read-out: KRAS G12D FRET data, IC50
[3] = KRAS G12V, read-out: KRAS G12V FRET data IC50
[4] = KRAS WT, read-out: KRAS WT FRET data IC50
[5] = NRAS G12C, read-out: NRAS G12C FRET data IC50
[6] = read-out: KRAS G13C FRET data, IC50
[7] = KRAS G13D, read-out: KRAS G13D FRET data IC50
[8] = read-out: KRAS G12S FRET data, IC50
[9] = KRAS G12V FRET data IC50, KRAS G12V
[10] = KRAS WT FRET data IC50, KRAS WT
[11] = NRAS G12C FRET data IC50, NRAS G12C
[12] = KRAS G13D FRET data IC50, KRAS G13D

Measured: IC50

KRAS G12C, sequence (P01116 1-169 isoform P01116-2 G12C): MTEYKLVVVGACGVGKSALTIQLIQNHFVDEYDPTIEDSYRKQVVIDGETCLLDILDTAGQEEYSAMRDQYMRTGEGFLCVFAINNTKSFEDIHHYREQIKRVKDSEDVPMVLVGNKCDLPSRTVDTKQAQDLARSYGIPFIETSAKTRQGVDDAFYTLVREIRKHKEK
KRAS G12C, sequence (P62937 whole entry): as the sequence (P62937 whole entry) above

CCn1c(-c2cccnc2[C@H](C)OC)c2c3cc(ccc31)-c1cc(O)cc(c1)C[C@H](NC(=O)[C@H](C(C)C)N(C)C(=O)C1CN(C)C1)C(=O)N1CCC[C@H](N1)C(=O)OCC(C)(C)C2 (atropisomer, axis not shown) [Example A124]
0.1 to 1 µM: KRAS G12C; [1] | KRAS G12V; [3] | NRAS G12C; [5] | NCI-H358 (K-Ras G12C) | NRAS Q61K
0.01 to 0.1 µM: KRAS G12D; [2] | KRAS WT; [4] | KRAS G13C; [6] | KRAS G13D; [7] | KRAS G12S; [8] | KRAS Q61H | NRAS WT
1 to 10 µM: Capan-1 (K-Ras G12V) | NRAS Q61R

CCn1c(-c2cccnc2[C@H](C)OC)c2c3cc(ccc31)-c1csc(n1)C[C@H](NC(=O)N1CCC[C@@H]1COC)C(=O)N1CCC[C@H](N1)C(=O)OCC(C)(C)C2 (atropisomer, axis not shown) [Example A266]
0.1 to 1 µM: KRAS G12D; KRAS G12D FRET data, IC50 | KRAS WT; [10] | KRAS G13D; [12] | KRAS G12S; KRAS G12S FRET data, IC50 | Capan-1 (K-Ras G12V) | NCI-H358 (K-Ras G12C) | NRAS Q61R | NRAS WT
0.01 to 0.1 µM: KRAS G12C; KRAS G12C FRET data, IC50 | KRAS G12V; [9] | NRAS G12C; [11] | KRAS G13C; KRAS G13C FRET data, IC50 | KRAS Q61H | NRAS Q61K

CCn1c(-c2cc(N3CCN(C)CC3)cnc2[C@H](C)OC)c2c3cc(ccc31)-c1csc(n1)C[C@H](NC(=O)[C@H](C(C)C)N(C)C(=O)N(C)C)C(=O)N1CCC[C@H](N1)C(=O)OCC(C)(C)C2 (atropisomer, axis not shown) [Example A277, (2S)—N-((6^3S,4S,Z)-1^1-ethyl-1^2-(2-((S)-1-methoxyethyl)-5-(4-methylpiperazin-1-yl)pyridin-3-yl)-10,10-dimethyl-5,7-dioxo-6^1,6^2,6^3,6^4,6^5,6^6-hexahydro-1^1H-8-oxa-2(4,2)-thiazola-1(5,3)-indola-6(1,3)-pyridazinacycloundecaphane-4-yl)-3-methyl-2-(1,3,3-trimethylureido)butanamide]
< 0.01 µM: Capan-1 (K-Ras G12V) | NCI-H358 (K-Ras G12C)
0.1 to 1 µM: KRAS G12D; [2]
0.01 to 0.1 µM: KRAS G12C; [1] | KRAS G12V; [3] | KRAS WT; [4] | NRAS G12C; [5] | KRAS G13C; [6] | KRAS G13D; [7] | KRAS G12S; [8] | NRAS Q61R | KRAS Q61H | NRAS Q61K | NRAS WT

CCn1c(-c2cccnc2[C@H](C)OC)c2c3cc(ccc31)-c1csc(n1)C[C@H](NC(=O)[C@H](C(C)C)N(C)C(=O)N1C[C@@H]3CN(C)C[C@@H]31)C(=O)N1CCC[C@H](N1)C(=O)OCC(C)(C)C2 (atropisomer, axis not shown) [Example A446]
1 to 10 µM: KRAS G12C; [1] | KRAS WT; [4] | NRAS G12C; [5] | KRAS G13C; [6] | KRAS G13D; [7] | KRAS G12S; [8] | KRAS Q61H | NRAS Q61K | NRAS WT
> 10 µM: KRAS G12D; [2] | KRAS G12V; [3] | Capan-1 (K-Ras G12V) | NRAS Q61R

CCn1c(-c2cccnc2[C@H](C)OC)c2c3cc(ccc31)-c1csc(n1)C[C@H](NC(=O)[C@H](C(C)C)N1CCC3(CCN(S(C)(=O)=O)C3)C1=O)C(=O)N1CCC[C@H](N1)C(=O)OCC(C)(C)C2 (mixture of isomers) [Example A220]
1 to 10 µM: Capan-1 (K-Ras G12V) | NRAS Q61R | KRAS Q61H | NRAS Q61K | NRAS WT

CCn1c(-c2cccnc2[C@H](C)OC)c2c3cc(ccc31)-c1csc(n1)C[C@H](NC(=O)[C@@H]1CCCO1)C(=O)N1CCC[C@H](N1)C(=O)OCC(C)(C)C2 [Example A331]
0.1 to 1 µM: KRAS G12C; [1] | KRAS G12V; [3] | KRAS WT; [4] | NRAS G12C; [5] | KRAS G13C; [6] | KRAS G12S; [8] | KRAS Q61H | NRAS Q61K | NRAS WT
1 to 10 µM: KRAS G12D; [2] | KRAS G13D; [7] | Capan-1 (K-Ras G12V) | NRAS Q61R

CCn1c(-c2cccnc2[C@H](C)OC)c2c3cc(ccc31)-c1csc(n1)C[C@H](NC(=O)c1ccccn1)C(=O)N1CCC[C@H](N1)C(=O)OCC(C)(C)C2 [Example A366]
0.1 to 1 µM: KRAS G12C; [1] | KRAS G12V; [3] | NRAS G12C; [5] | KRAS G13C; [6] | KRAS Q61H | NRAS Q61K | NRAS WT
1 to 10 µM: KRAS G12D; [2] | KRAS WT; [4] | KRAS G13D; [7] | KRAS G12S; [8] | Capan-1 (K-Ras G12V) | NRAS Q61R

CCn1c(-c2cccnc2[C@H](C)OC)c2c3cc(ccc31)-c1csc(n1)C[C@H](NC(=O)[C@H](C(C)C)N(C)C(=O)N1CC[C@]13CCCNC3)C(=O)N1CCC[C@H](N1)C(=O)OCC(C)(C)C2 [Example A434]
0.1 to 1 µM: KRAS G12C; [1] | KRAS G12D; [2] | KRAS WT; [4] | NRAS G12C; [5] | KRAS G13C; [6] | KRAS G13D; [7] | KRAS G12S; [8] | NRAS Q61R | NRAS Q61K
1 to 10 µM: KRAS G12V; [3] | Capan-1 (K-Ras G12V)
0.01 to 0.1 µM: KRAS Q61H | NRAS WT

CCn1c(-c2cccnc2[C@H](C)OC)c2c3cc(ccc31)-c1csc(n1)C[C@H](NC(=O)[C@H](C(C)C)N(C)C(=O)N1CC(N)(C#N)C1)C(=O)N1CCC[C@H](N1)C(=O)OCC(C)(C)C2 [Example A456]
1 to 10 µM: KRAS G12D; KRAS G12D FRET data, IC50 | KRAS G13D; [12] | Capan-1 (K-Ras G12V)
0.1 to 1 µM: KRAS G12C; KRAS G12C FRET data, IC50 | KRAS G12V; [9] | KRAS WT; [10] | NRAS G12C; [11] | KRAS G13C; KRAS G13C FRET data, IC50 | KRAS G12S; KRAS G12S FRET data, IC50 | NRAS Q61R | KRAS Q61H | NRAS Q61K | NRAS WT
